Broadly, the MIC is the lowest concentration that inhibits growth of the organism.

The structures appear in SMILES notation. Several values for one entry are separate records, joined by “and”; a condition that tells them apart may be missing. Identical values can stand only once. Like-named read-outs stand apart in the source and are kept apart here. Marks after values point to notes of the source that are not given here. Residues, ends and D or L forms follow the SMILES beside them. *: point of attachment. X1 = CCCCCCCCCCCCCCCCn1cc[n+](Cc2cn(CC(=O)*)nn2)c1; X2 = Cn1cc[n+](Cc2cn(CC(=O)*)nn2)c1

This is an account of results in patent publication US20250360179A1, “PEPTIDE-IONIC LIQUID CONJUGATE FOR THE PREVENTION AND/OR TREATMENT OF SKIN DISORDERS” (UNIVERSIDADE DO PORTO, priority 2022, published 2025).

What all share (type): cell-based
In assay [1] the test system is Gram-negative and Gram-positive bacteria (ATCC reference strains). The assay is described as follows: Antibacterial activity against ATCC reference strains, statements across species. The following applies: Gram-positive species at MIC values. How it is done:
The antimicrobial activity of the IL-KTTKS conjugates was assessed in vitro against reference bacterial strains (American Type Culture Collection, ATCC). The minimal inhibitory concentration (MIC) was determined according to the Clinical and Laboratory Standards Institute (CLSI) guidelines (43) against Gram-positive (S. aureus, E. faecalis) and Gram-negative (E. coli, P. aeruginosa) bacteria. […] IL are in agreement with those previously reported (44).

Another assay has as its system E. faecalis ATCC 29212. The assay is described as follows: MIC (CLSI) against E. faecalis ATCC 29212. Particulars: E. faecalis ATCC 29212, n = 3.
Another assay relates to S. aureus (ATCC 29213). The assay is described as follows: MIC and MBC in MHB and simulated wound fluid (SWF). The following applies: for MBC: S. aureus ATCC 29213 in MHB, n = 3; for antibacterial activity in simulated wound fluid (SWF): S. aureus, SWF compared with MHB. How it is done:
The antibacterial activity of C16Im-KTTKS and KTTK(C16Im)S was also assessed in SWF (50) against S. aureus (ATCC 29213), to check if it was preserved in this medium.

Assay [2] deals with Candida albicans (ATCC 90028). The assay is described as follows: Antifungal MIC (EUCAST) against C. albicans. Particulars: C. albicans ATCC 90028, n = 2.
The subject of assay [3] is S. epidermidis ATCC 14990. The assay is described as follows: MIC (CLSI) against S. epidermidis ATCC 14990. Particulars: S. epidermidis ATCC 14990, n = 3.
The next assay concerns K. pneumonia ATCC 138830. The assay is described as follows: MIC (CLSI) against K. pneumoniae ATCC reference strain. Particulars: K. pneumonia ATCC 138830, n = 3.
Assay [4] deals with human dermal fibroblasts (HDF). Kind of assay: Collagen production in vitro (Sircol kit). Particulars: 5 μM, versus negative control. The method, then: FIG. 3—Collagen synthesis by Human Dermal Fibroblasts (HDF), in presence of C16-KTTKS-OH (Matrixyl®), KTTK (C16Im)S and C16Im-KTTKS at 5 μM, using the Sircol™ Kit. Data are presented as mean±SEM (3 independent experiments in triplicates) expressed in collagen amount (% of control); *p<0.05, **p<0.01.
The point of conjugating antimicrobial ILs to a collagenesis-inducing peptide was to afford a simple construct able to exert a dual antimicrobial and skin rebuilding action. Therefore, the two best IL-KTTKS conjugates were further tested for their ability to promote collagen production by human dermal fibroblasts (HDF) in vitro. This was assessed using the Sircol® kit assay, whereby the amount of newly formed collagen in the ECM that is deposited in the microwell-plated cell cultures is solubilized in an acidic medium and next quantified through a collagen standard curve according to the Sircol® kit assay procedure (55). Assays were conducted in different conditions for comparison, namely, in the presence of the reference cosmeceutical Matrixyl® (positive control—C16-KTTKS-OH), of the test conjugates KTTK(C16Im)S and C16Im-KTTKS, and in the absence of any peptide (negative control).

In assay [5] the test system is K. pneumoniae (KP010) MDR clinical isolate. Particulars: MDR isolate KP010, n = 3.
The test system of another assay is S. pyogenes ATCC 19615. The assay is described as follows: MIC (CLSI) against S. pyogenes ATCC 19615. Particulars: S. pyogenes ATCC 19615, n = 3.
Assay [6] concerns Candida parapsilosis (ATCC 22019). Kind of assay: Antifungal MIC (EUCAST) against C. parapsilosis. Particulars: C. parapsilosis ATCC 22019, n = 2.
For assay [7], the system named is S. aureus (SA007) MDR clinical isolate. Particulars: for MIC: MDR isolate SA007, n = 3.
In a further assay the test system is P. aeruginosa ATCC 27853. The assay is described as follows: MIC (CLSI) against P. aeruginosa ATCC 27853. Particulars: P. aeruginosa ATCC 27853, n = 3.
Assay [8] concerns Candida glabrata (ATCC 90030). The assay is described as follows: Antifungal MIC (EUCAST) against C. glabrata. Particulars: C. glabrata ATCC 90030, n = 2.
The next assay concerns S. aureus ATCC 29213. Kind of assay: MIC (CLSI) against S. aureus ATCC 29213. Particulars: S. aureus ATCC 29213, n = 3.
Assay [9] has as its system P. aeruginosa (PA004) MDR clinical isolate. The following applies: MDR isolate PA004, n = 3.
For the next assay, the system named is E. coli ATCC 25922. The assay is described as follows: MIC (CLSI) against E. coli ATCC 25922. The following applies: E. coli ATCC 25922, n = 3.

Take `CCCCCCCCCCCCCCCCn1cc[n+](Cc2cn(CC(=O)N[C@@H](CCCCN)C(=O)N[C@H](C(=O)N[C@H](C(=O)N[C@@H](CCCCN)C(=O)N[C@@H](CO)C(N)=O)[C@@H](C)O)[C@@H](C)O)nn2)c1` [Peptide C16Im-KTTKS] (X1-KTTKS-NH2; N-terminus and C-terminus assumed): in assay [1], the “bacteriostatic or bactericidal action” value is given as “bactericidal”. Also, the MIC result is “(28.0) μg/mL” with E. faecalis ATCC 29212; 4.6 µg/mL in assay [2]; “(9.3) μg/mL” in assay [3]; “(26.8) μg/mL” against K. pneumonia ATCC 138830; “(37.0) μg/mL” in [5]; “(18.5) μg/mL” against S. pyogenes ATCC 19615. Also, the MIC result is “(2.3) μg/mL” in assay [6]; “(18.5)^a μg/mL” in assay [7]; “(28.0) μg/mL” with P. aeruginosa ATCC 27853; “(4.6) μg/mL” in assay [8]; “(14.0) μg/mL” in the assay with S. aureus ATCC 29213; “(18.5) μg/mL” in [9]. Also, the minimum inhibitory concentration (MIC) result against E. coli ATCC 25922 was “(14.0) μg/mL”. Further, in the assay with S. aureus (ATCC 29213), the MBC entry was “[32-64] μg/mL”. For the same compound, in the assay on S. aureus (ATCC 29213), the “antibacterial activity in simulated wound fluid (SWF)” value is on record as “retain”. In addition, the “collagen production (collagen amount, % of control)” value in assay [4] is listed as “produce more collagen”. The “MIC relative to that of ciprofloxacin” value in assay [7] (MDR isolate SA007) is on record as about 10 fold.
As for `C[C@@H](O)[C@H](NC(=O)[C@H](CCCCN)NC(=O)Cn1cc(C[n+]2ccn(C)c2)nn1)C(=O)N[C@H](C(=O)N[C@@H](CCCCN)C(=O)N[C@@H](CO)C(N)=O)[C@@H](C)O` [MeIm-KTTKS] (X2-KTTKS-NH2; N-terminus and C-terminus assumed), the MIC with E. faecalis ATCC 29212 was > 825.9 μM and > 633.4 μg/mL; against P. aeruginosa ATCC 27853, > 825.9 μM and > 633.4 μg/mL; in the assay on S. aureus ATCC 29213, > 825.9 μM and > 633.4 μg/mL; with E. coli ATCC 25922 it was over 633.4 µg/mL.
As for `CCCCCCCCCCCCCCn1cc[n+](Cc2cn(CCCC[C@H](NC(=O)[C@@H](NC(=O)[C@@H](NC(=O)[C@@H](N)CCCCN)[C@@H](C)O)[C@@H](C)O)C(=O)N[C@@H](CO)C(N)=O)nn2)c1` [KTTK(C14Im)S], the MIC result is listed as “(52.6)^b μg/mL” in the assay on E. faecalis ATCC 29212, “(52.6)^b μg/mL” against P. aeruginosa ATCC 27853, “(26.3) μg/mL” against S. aureus ATCC 29213 and “(26.3) μg/mL” in the assay with E. coli ATCC 25922.
As to `CCCCCCCCCCCCCCCCn1cc[n+](Cc2cn(CCCC[C@H](NC(=O)[C@@H](NC(=O)[C@@H](NC(=O)[C@@H](N)CCCCN)[C@@H](C)O)[C@@H](C)O)C(=O)N[C@@H](CO)C(N)=O)nn2)c1` [KTTK(C16Im)S], the “bacteriostatic or bactericidal action” value in assay [1] was “bactericidal”. Also, the MIC entry against E. faecalis ATCC 29212 is “(29.9) μg/mL”; in assay [2], 5.0 µg/mL; in [3], “(5.0) μg/mL”; in the assay with K. pneumonia ATCC 138830, “(49.5) μg/mL”; in assay [5] it was 20.0 µg/mL; with S. pyogenes ATCC 19615 it was “(10.0) μg/mL”. In addition, the MIC entry in assay [6] was “(2.5) μg/mL”; in assay [7], 21.7 μM and 20.0 μg/mL; in the assay with P. aeruginosa ATCC 27853, “(29.9) μg/mL”; in [8] it was “(5.0) μg/mL”; against S. aureus ATCC 29213, “(12.9) μg/mL”; in assay [9], 21.7 μM and 20.0 μg/mL. Further, the MIC result with E. coli ATCC 25922 is “(6.45) μg/mL”. For the same compound, the MBC entry in the assay with S. aureus (ATCC 29213) was “[64-128] μg/mL”. Besides, the “antibacterial activity in simulated wound fluid (SWF)” value in the assay on S. aureus (ATCC 29213) was “slightly decrease”. In assay [4], the “collagen production (collagen amount, % of control)” value is given as “produce more collagen”.
Turning to `C[C@@H](O)[C@H](NC(=O)[C@@H](NC(=O)[C@@H](N)CCCCn1cc(C[n+]2ccn(C)c2)nn1)[C@@H](C)O)C(=O)N[C@@H](CCCCn1cc(C[n+]2ccn(C)c2)nn1)C(=O)N[C@@H](CO)C(N)=O` [K(MeIm)TTK(MeIm)S], the MIC in the assay with E. faecalis ATCC 29212 was > 1245.5 μM and > 1067.4 μg/mL; against P. aeruginosa ATCC 27853 it was > 1245.5 μM and > 1067.4 μg/mL; against S. aureus ATCC 29213 it was > 1245.5 μM and > 1067.4 μg/mL; in the assay with E. coli ATCC 25922, over 1067.4 µg/mL.
Consider `OC(Cn1cncn1)(Cn1cncn1)c1ccc(F)cc1F` [Fluconazole, reference compound], for which the MIC turned out to be 0.5 µg/mL in assay [2] (Candida albicans, ATCC90028, read-out: MIC); 2 µg/mL in [6] (ATCC22019, read-out: MIC); 8 µg/mL in assay [8] (Nakaseomyces glabratus, ATCC90030, read-out: MIC).
For `C[C@@H](O)[C@H](NC(=O)[C@@H](NC(=O)[C@@H](N)CCCCN)[C@@H](C)O)C(=O)N[C@@H](CCCCn1cc(C[n+]2ccn(C)c2)nn1)C(=O)N[C@@H](CO)C(N)=O` [KTTK(MeIm)S], the MIC against E. faecalis ATCC 29212 is > 954.2 μM and > 677.3 μg/mL; with P. aeruginosa ATCC 27853, > 954.2 μM and > 677.3 μg/mL; in the assay with S. aureus ATCC 29213, > 954.2 μM and > 677.3 μg/mL; in the assay with E. coli ATCC 25922, over 677.3 µg/mL.
`CCCCCCCCCCCCCCCCn1cc[n+](C)c1.[Br-]` [[C16M1Im][Br], reference compound]: the MIC in the assay with E. faecalis ATCC 29212 was 0.94^c μM; in [2], 0.93 µM; against K. pneumonia ATCC 138830 it was 60 µM; in assay [6], 0.93 µM; against P. aeruginosa ATCC 27853, over 240 µM; in assay [8] it was 0.93 µM. For the same compound, the MIC against S. aureus ATCC 29213 was 0.94^d μM; with E. coli ATCC 25922, 60 µM.
Take `C[C@@H](O)[C@H](NC(=O)[C@@H](NC(=O)[C@@H](N)CCCCn1cc(C[n+]2ccn(C)c2)nn1)[C@@H](C)O)C(=O)N[C@@H](CCCCN)C(=O)N[C@@H](CO)C(N)=O` [K(MeIm)TTKS]: the MIC against E. faecalis ATCC 29212 is > 1030.1 μM and > 731.2 μg/mL; against P. aeruginosa ATCC 27853 it was > 1030.1 μM and > 731.2 μg/mL; in the assay on S. aureus ATCC 29213 it was > 1030.1 μM and > 731.2 μg/mL; in the assay on E. coli ATCC 25922, over 731.2 µg/mL.
